Key:
hA2AAR = molecular target: T1, hA2AAR (Homo sapiens, UniProt P29274); assay: Competition binding, [3H]ZM241385, hA2A CHO cell membranes; conditions: displacement of [3H]ZM241385, hA2A CHO cells; mean ± SEM of four assays
T1 construct: host or cells: CHO cells
Description: (§1) CHO cells transfected with hA1, hA2A, hA2B and hA3 ARs (Perkin Elmer, Boston, MA, USA) were grown adherently and maintained in Dulbecco’s modified Eagle’s medium with nutrient mixture F12, containing 10% fetal calf serum, penicillin (100 U/mL), streptomycin (100 μg/mL), L-glutamine (2 mM) and geneticine (G418; 0.2 mg/mL), at 37 °C, in 5% CO2/95% air, until their use in cAMP assays. For membrane preparation, the culture medium was removed, and the cells were washed with phosphate-buffered saline and scraped off T75 flasks in ice-cold hypotonic buffer (5 mM Tris HCl, 1 mM EDTA, pH 7.4). The cell suspension was homogenized with a Polytron, centrifuged for 30 min at 40,000× g, at 4 °C, and the resulting membrane pellet was used for competition binding experiments.
All synthesized compounds were tested for their affinity to hA1, hA2A and hA3 ARs. Competition experiments to hA1AR were carried out by incubating 1 nM [^3H]-8-cyclopentyl-1,3-dipropylxanthine ([^3H]-DPCPX) with membrane suspension (50 μg of protein/100 μL) and different concentrations of the examined compounds at 25 °C for 90 min in 50 mM Tris HCl, pH 7.4. Non-specific binding was defined as binding in the presence of 1 μM DPCPX and was always <10% of the total binding. Inhibition experiments to hA2A ARs were performed by incubating the radioligand [^3H]-4-(-2-[7-amino-2-{2-furyl}{1,2,4}triazolo{2,3-a} {1,3,5}triazin-5-yl-amino]ethyl)phenol ([^3H]-ZM241385) (1 nM) with the membrane suspension (50 μg of protein/100 μL) and different concentrations of the examined compounds for 60 min, at 4 °C, in 50 mM Tris HCl (pH 7.4), 10 mM MgCl2. Non-specific binding was determined in the presence of ZM241385 (1 μM) and was about 20% of the total binding. Competition binding experiments to A3ARs were carried out by incubating the membrane suspension (50 μg of protein/100 μL) with 0.5 nM [^125I]-N6-(4-aminobenzyl)-N-methylcarboxamidoadenosine ([^125I]-ABMECA) in the presence of different concentrations of the examined compounds for an incubation time of 120 min, at 4 °C, in 50 mM Tris HCl (pH 7.4), 10 mM MgCl2, 1 mM EDTA. Non-specific binding was defined as binding in the presence of 1 μM ABMECA and was always <10% of the total binding. Bound and free radioactivity were separated by filtering the assay mixture through Whatman GF/B glass-fiber filters, using a Brandel cell harvester (Brandel Instruments, Unterföhring, Germany). The filter bound radioactivity was counted by Packard Tri Carb 2810 TR scintillation counter (Perkin Elmer).
The protein concentration was determined according to a Bio-Rad method, with bovine albumin as a standard reference. Inhibitory binding constant (Ki) values were calculated from those of IC50 according to the Cheng–Prusoff equation, Ki = IC50/(1 + [C*]/KD*), where [C*] is the concentration of the radioligand, and KD* its dissociation constant. Ki and IC50 values were calculated by non-linear regression analysis, using the equation for a sigmoid concentration-response curve (Graph-PAD Prism, San Diego, CA, USA).

hA2B AR = molecular target: T2, hA2B AR (Homo sapiens, UniProt P29275); assay: cAMP assay in CHO cells expressing hA2B AR (stimulation of cAMP production); format: cell-based; conditions: for Emax at 1 µM: CHO, 1 µM compound, in comparison with NECA (1 µM = 100%), read-out: Efficacy hA2B (cAMP assay) (converted); for EC50: hA2B CHO cells, mean ± SEM of four assays
T2 construct: host or cells: CHO cells
T2 sequence (P29275 1-332): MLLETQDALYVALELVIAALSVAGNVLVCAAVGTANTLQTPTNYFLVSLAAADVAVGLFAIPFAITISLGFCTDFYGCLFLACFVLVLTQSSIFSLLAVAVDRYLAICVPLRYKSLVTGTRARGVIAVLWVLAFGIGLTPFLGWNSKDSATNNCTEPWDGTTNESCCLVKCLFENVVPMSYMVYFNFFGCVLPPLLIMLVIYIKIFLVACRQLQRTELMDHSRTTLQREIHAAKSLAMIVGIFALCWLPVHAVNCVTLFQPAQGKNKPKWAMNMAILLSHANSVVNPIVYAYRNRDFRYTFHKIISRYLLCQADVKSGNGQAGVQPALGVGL
Description: (§2) The amino-3,5-dicyanopyridines 1–21 were tested for their affinity at hA1, hA2A and hA3 ARs, stably transfected in Chinese Hamster Ovary (CHO) cells. Moreover, they were also studied as hA2B agonists by evaluating their stimulatory effect on cAMP production in CHO cells, stably expressing the hA2B AR. […] Due to their interesting pan profile, both compounds 1 and 5 were evaluated as AR agonists also at the hA2A and hA3 subtypes.
as §1
(§3) CHO cells transfected with hAR subtypes were washed with phosphate-buffered saline, detached with tripsine and centrifuged for 10 min at 200× g. Cells were seeded in a 96-well white half-area microplate (Perkin Elmer, Boston, USA) in a stimulation buffer composed of Hank Balanced Salt Solution, 5 mM HEPES, 0.5 mM Ro 20–1724, 0.1% BSA. The cAMP levels were then quantified by using the AlphaScreen cAMP Detection Kit (Perkin Elmer, Boston, MA, USA), following the manufacturer’s instructions. At the end of the experiments, the plates were read with a Perkin Elmer EnSight Multimode Plate Reader.

hA1AR = molecular target: T3, hA1AR (Homo sapiens, UniProt P30542); assay: Modulation of Forskolin-stimulated cAMP levels in hA1 CHO cells; format: cell-based; conditions: for EC50: footnote c, mean ± SEM of four experiments, read-out: hA1AR EC50 or IC50, potency to modulate Forskolin-stimulated cAMP levels; for hA1AR Efficacy: normalized: CCPA full agonist = 100%, DPCPX inverse agonist = −100%; for hA1AR Profile: pharmacological profile in cAMP assay
T3 construct: host or cells: CHO cells
T3 sequence (P30542 1-326): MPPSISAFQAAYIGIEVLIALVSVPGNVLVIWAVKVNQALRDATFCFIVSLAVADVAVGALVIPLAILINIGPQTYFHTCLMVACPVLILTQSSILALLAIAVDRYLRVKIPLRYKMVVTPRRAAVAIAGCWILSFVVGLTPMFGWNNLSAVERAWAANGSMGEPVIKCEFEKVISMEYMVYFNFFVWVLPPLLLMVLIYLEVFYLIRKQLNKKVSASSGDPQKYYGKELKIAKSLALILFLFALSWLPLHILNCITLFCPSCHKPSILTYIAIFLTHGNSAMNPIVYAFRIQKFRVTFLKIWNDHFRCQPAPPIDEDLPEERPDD
Description: as §2, §1, §3

[1] = Solubility in testing medium; format: physicochemical; conditions: PBS + Tween 80 (2% w/w), pH 7.4, aqueous with cosolvent or surfactant or cyclodextrin

T1 sequence (P29274 whole entry): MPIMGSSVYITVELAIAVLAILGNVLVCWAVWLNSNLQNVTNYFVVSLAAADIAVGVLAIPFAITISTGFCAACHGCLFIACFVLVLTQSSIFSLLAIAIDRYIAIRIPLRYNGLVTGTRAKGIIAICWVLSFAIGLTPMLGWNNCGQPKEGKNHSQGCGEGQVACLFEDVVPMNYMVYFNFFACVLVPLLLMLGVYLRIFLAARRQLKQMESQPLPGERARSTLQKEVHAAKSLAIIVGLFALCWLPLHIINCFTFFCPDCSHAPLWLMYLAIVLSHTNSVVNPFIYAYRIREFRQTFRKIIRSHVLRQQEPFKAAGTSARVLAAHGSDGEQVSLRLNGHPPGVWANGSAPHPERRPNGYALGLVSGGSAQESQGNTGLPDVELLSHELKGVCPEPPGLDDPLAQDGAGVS

Ki (hA2AAR) | Emax at 1 µM (hA2B AR) | EC50 (hA2B AR) | EC50 (hA1AR) | hA1AR Efficacy (hA1AR) | hA1AR Profile (hA1AR) | solubility [1] | Structure (SMILES)
24 ± 2 nM | 73% | 1.12 ± 0.11 nM | 1.95 ± 0.16 nM | 75 ± 5% | Partial Agonist | 27.3 ± 2.52 µg/mL | N#Cc1c(N)nc(SCc2ncc[nH]2)c(C#N)c1-c1cccs1 [Compound 5, 2-Amino-6-[(1H-imidazol-2-ylmethyl)sulfanyl]-4-(thiophen-2-yl)pyridine-3,5-dicarbonitrile]
21 ± 2 nM | 52% | 1.4 ± 0.2 nM | 12.2 ± 1.2 nM | 31 ± 3% | Partial Agonist | 40.6 ± 0.16 µg/mL | N#Cc1c(N)nc(SCc2ncc[nH]2)c(C#N)c1-c1ccco1 [Compound 1, 2-Amino-4-(furan-2-yl)-6-[(1H-imidazol-2-ylmethyl)sulfanyl]pyridine-3,5-dicarbonitrile]
